Laboratory results published in US20130045983A1, “HSP90 INHIBITORS FOR THERAPEUTIC TREATMENT” (Novartis AG, priority 2008, published 2013).

Key:
Assay type in all cases: cell-based
PC3 = assay: Cell proliferation assay, PC3 (prostate); conditions: Homo sapiens, PC-3, 72 hours in presence of compound
Protocol: (§1) Seventeen cancer derived cell lines are used (GTL-16, N87, H1975, A549, H69, A2780, PC3, BT474, SKBR3, MCF-7, A375, MV4;11, K562, KM12L4A, H929, OPM-2 and KMS-11) to test the effect of (R)-2-amino-7-[2-(6-methoxy-pyridin-2-yl)-phenyl]-4-methyl-7,8-dihydro-6H-pyrido[4,3-d]pyrimidin-5-one. These cell lines cover the following 9 tumor types: Gastric, Lung, Ovarian, Prostate, Breast, Melanoma, Leukemia, Colon and Multiple myeloma. After division and medium change, cells from stock culture are seeded on cell plates and cultured for about 18 hours to allow cell growth and attachment before starting the assay. Then on the first day of the assay, (R)-2-amino-7-[2-(6-methoxy-pyridin-2-yl)-phenyl]-4-methyl-7,8-dihydro-6H-pyrido[4,3-d]pyrimidin-5-one is added to the medium at various concentrations. Cells are cultured up to 72 or 96 hours and cell proliferation is determined using commercially available cell proliferation kits.
(§2) Table 1 relates to the concentration in nM of (R)-2-amino-7-[2-(6-methoxy-pyridin-2-yl)-phenyl]-4-methyl-7,8-dihydro-6H-pyrido[4,3-d]pyrimidin-5-one which inhibits cell proliferation by 50% (IC50). […]

MAXF 857 = assay: Clonogenic assay, MAXF 857; conditions: Homo sapiens, Breast, Invasive ductal carcinoma, soft agar, read-out: IC50 (colony formation)
Protocol: (§3) The anticancer activity of (R)-2-amino-7-[2-(6-methoxy-pyridin-2-yl)-phenyl]-4-methyl-7,8-dihydro-6H-pyrido[4,3-d]pyrimidin-5-one is evaluated in 30 human tumor xenografts in vitro using a clonogenic assay. In this assay, human cells derived from cancer patients are evaluated for the capacity of (R)-2-amino-7-[2-(6-methoxy-pyridin-2-yl)-phenyl]-4-methyl-7,8-dihydro-6H-pyrido[4,3-d]pyrimidin-5-one to inhibit the formation of 3 dimensional colonies. […] The tumor xenografts which have never been cultured in cell culture plastic dishes are isolated from nude mice. Tumor cell suspensions are prepared and incubated in 24 well plates containing layers of soft agar. Under these conditions a special subpopulation of cells selectively grows to colonies. (R)-2-amino-7-[2-(6-methoxy-pyridin-2-yl)-phenyl]-4-methyl-7,8-dihydro-6H-pyrido[4,3-d]pyrimidin-5one is tested in 6 concentrations up to 1000 nM. The tumor test panel comprises 1 to 10 models of 12 different human tumor types, which were bladder cancer, colon, gastric, non small cell lung (adeno, squamous cell, and large cell), small cell lung, mammary, ovary, and prostate cancer, as well as leukemia, lymphoma, melanoma, and sarcoma. Antitumor effects are recorded as inhibition of colony formation in relation to untreated controls. […]

GXF 1172 = assay: Clonogenic assay, GXF 1172; conditions: Homo sapiens, Stomach, Signet-ring cell carcinoma, soft agar, read-out: IC50 (colony formation)
Protocol: as §3

PRXF DU145 = assay: Clonogenic assay, PRXF DU145; conditions: Homo sapiens, DU-145, Prostate, Adenocarcinoma, soft agar, read-out: IC50 (colony formation)
Protocol: as §3

LXFS 660 = assay: Clonogenic assay, LXFS 660; conditions: Homo sapiens, Lung, small cell, Small cell lung carcinoma, soft agar, read-out: IC50 (colony formation)
Protocol: as §3

MEXF 1341 = assay: Clonogenic assay, MEXF 1341; conditions: Homo sapiens, Amelanotic melanoma, soft agar, read-out: IC50 (colony formation)
Protocol: as §3

H1975 = assay: Cell proliferation assay, H1975 (lung); conditions: Homo sapiens, NCI-H1975, 72 hours in presence of compound
Protocol: as §1, §2

KM12L4A = assay: Cell proliferation assay, KM12L4A (colon); conditions: 72 hours in presence of compound
Protocol: as §1, §2

PRXF 22RV1 = assay: Clonogenic assay, PRXF 22RV1; conditions: Homo sapiens, Prostate carcinoma, soft agar, read-out: IC50 (colony formation)
Protocol: as §3

MAXF 583 = assay: Clonogenic assay, MAXF 583; conditions: Homo sapiens, Breast, Ductual adenocarcinoma, soft agar, read-out: IC50 (colony formation)
Protocol: as §3

H69 = assay: Cell proliferation assay, H69 (lung); conditions: Homo sapiens, NCI-H69, 72 hours in presence of compound
Protocol: as §1, §2

BT474 = assay: Cell proliferation assay, BT474 (breast); conditions: Homo sapiens, BT-474, 72 hours in presence of compound
Protocol: as §1, §2

N87 = assay: Cell proliferation assay, N87 (gastric); conditions: 72 hours in presence of compound
Protocol: as §1, §2

BXF 1258 = assay: Clonogenic assay, BXF 1258; conditions: Homo sapiens, Bladder, Transitional cell carcinoma, soft agar, read-out: IC50 (colony formation)
Protocol: as §3

CXF 1729 = assay: Clonogenic assay, CXF 1729; conditions: Homo sapiens, Colon, Papillary adenocarcinoma, soft agar, read-out: IC50 (colony formation)
Protocol: as §3

LXFA 1012 = assay: Clonogenic assay, LXFA 1012; conditions: Homo sapiens, Lung, non-small cell, Adenocarcinoma, soft agar, read-out: IC50 (colony formation)
Protocol: as §3

MEXF 989 = assay: Clonogenic assay, MEXF 989; conditions: Homo sapiens, Amelanotic melanoma, soft agar, read-out: IC50 (colony formation)
Protocol: as §3

OVXF 1353 = assay: Clonogenic assay, OVXF 1353; conditions: Homo sapiens, Ovary, Adenocarcinoma, soft agar, read-out: IC50 (colony formation)
Protocol: as §3

LEXF CCRFCEM = assay: Clonogenic assay, LEXF CCRFCEM; conditions: Homo sapiens, CCRF-CEM, Leukemia, ALL, T lymphoblast, soft agar, read-out: IC50 (colony formation)
Protocol: as §3

CXF 214 = assay: Clonogenic assay, CXF 214; conditions: Homo sapiens, Stomach, Adenocarcinoma, soft agar, read-out: IC50 (colony formation)
Protocol: as §3

Compound: COc1cccc(-c2ccccc2[C@H]2Cc3nc(N)nc(C)c3C(=O)N2)n1 [(R)-2-amino-7-[2-(6-methoxy-pyridin-2-yl)-phenyl]-4-methyl-7,8-dihydro-6H-pyrido[4,3-d]pyrimidin-5-one]
- GI50 (PC3): 16 nM
- IC50 (MAXF 857): 12 nM
- IC50 (GXF 1172): 43 nM
- IC50 (PRXF DU145): 17 nM
- IC50 (LXFS 660): 6 nM
- IC50 (MEXF 1341): > 1000 nM
- GI50 (H1975): 33 nM
- GI50 (KM12L4A): 11 nM
- IC50 (PRXF 22RV1): 23 nM
- IC50 (MAXF 583): 24 nM
- GI50 (H69): 37 nM
- GI50 (BT474): 6 nM
- GI50 (N87): 12 nM
- IC50 (BXF 1258): 316 nM
- IC50 (CXF 1729): 199 nM
- IC50 (LXFA 1012): > 1000 nM
- IC50 (MEXF 989): 17 nM
- IC50 (OVXF 1353): 53 nM
- IC50 (LEXF CCRFCEM): 27 nM
- IC50 (CXF 214): > 1000 nM
